Experimental data as given in a melting point compilation (Tetko et al.; mined from patent text by program, amines drawn as free bases though some values may be those of a salt).

`Cc1cc2c(s1)Oc1cccc(C)c1N=C2N1CCN(C)CC1` gave a melting point of 114 to 117 °C.
Work on `CCc1nc2c(cnn2CC)c(NC2CCOCC2)c1CNC(=O)c1cc(C)cc(C(=O)NCc2ccc(OC)c(-c3cccc(C=O)c3)c2)c1` yielded a melting point of 117 to 119 °C.
Work on `CCc1ccc2[nH]c(C(=O)OCc3ccccc3)cc2c1` yielded a melting point of 99 °C.
`N#Cc1ncn2c(C(F)(F)F)cc(-c3cccc(Cl)c3)nc12` showed a melting point of 221 °C.
With `COC(=O)c1ccccc1S(=O)(=O)N(n1cnn(-c2nc(OC)cc(OC)n2)c1=O)S(=O)(=O)c1ccccc1C(=O)OC` the melting point was 176 °C.
With `O=C(O)COC(=O)c1c(Cl)cccc1Cl` the melting point was 180 to 182 °C.
Work on `O=C(Nc1cccc(C(F)(F)F)c1)C1C(=O)C2CCC(C2)C1=O` (stereo not drawn) yielded a melting point of 68 to 69 °C.
For `N#Cc1cccc(C2=Nc3ccc(C#Cc4ccc(F)cc4F)cc3NC(=O)C2)c1`, the melting point was 240 to 246 °C.
For `COc1ccc(C(=O)Nc2c(Cl)cncc2Cl)c2c1oc1ccncc12`, the melting point was over 260 °C.
`CC(C)(C)c1cc(-c2nn(CCCC(=O)O)c3ncccc23)cc(C(C)(C)C)c1O` gave a melting point of 192 to 194 °C.
With `O=C(C=P(c1ccccc1)(c1ccccc1)c1ccccc1)CCCOc1ccccc1` the melting point was 83 to 89 °C.
Compound `CCCNc1ccc([N+](=O)[O-])cc1C(=O)c1ccccc1` has a melting point of 150 °C.
In the case of `COC(=O)c1cncn1C1c2ccccc2C(=O)CC1(C)C` (stereo not drawn), the melting point was 93 to 95 °C.
Work on `CCc1cc(C(C)=O)c(O)cc1OCCCCCC(C)(C)C(N)=O` yielded a melting point of 73 to 74 °C.
`CC(C)n1nc(-c2sc(NCCN3CCCCC3)nc2-c2ccccc2)ccc1=O` gave a melting point of 165 to 166 °C.
For `CCc1ccccc1OS(=O)(=O)c1ccc(N2CCN(C)C2=O)cc1`, the melting point was 126 to 128 °C.
Work on `O=[N+]([O-])c1cn2c(n1)O[C@@H](COc1ccc(N3CCC(Cc4ccc(OC(F)(F)F)cc4)CC3)cc1)C2` yielded a melting point of 160 to 164 °C.
In the case of `CC(Oc1ccc(Oc2cnc3cc(Cl)ccc3n2)cc1)C(=O)Nc1ccc(OC(F)(F)F)cc1` (stereo not drawn), the melting point was 156 to 158 °C.
For `CCn1ncc2c(Cl)c3cc(SC)ccc3nc21`, the melting point was 120 to 121 °C.
With `CCOc1ccc2ccccc2c1C(=O)N1CCC(NS(=O)(=O)c2cc(S(=O)(=O)c3ccccc3)ccc2C(C)C)CC1` the melting point was 164 to 166 °C.
For `CCOC(=O)COc1nnc(-c2ccc3c(c2)CCO3)o1`, the melting point was 103 to 104 °C.
With `CCc1c(-c2ccc(OC)cc2)c2cc(C(C)=O)c3cc(OC)cc1n32` the melting point was 137 to 139 °C.
Work on `NNc1nc(Cl)nc2cc3c(cc12)OCO3` yielded a melting point of over 280 °C.
Compound `CC(=O)OCCOC(=O)C1=C(C)NC(C)=C([N+](=O)[O-])C1c1ccccc1Cl` (stereo not drawn) has a melting point of 158 to 160 °C.
`COc1cc(N(C)C)nc(NC(=O)NS(=O)(=O)c2ccccc2Cl)n1` gave a melting point of 224 to 226 °C.
`Cc1noc(-c2cnc(NC(=O)[C@H](CC3CCCC3)c3ccc(S(C)(=O)=O)c(Cl)c3)cn2)n1` gave a melting point of 101 to 105 °C.
Compound `CCCSc1sc(C(=O)OCC)c2c1C(=O)C(Br)CC2` (stereo not drawn) has a melting point of 93 to 94 °C.
`C1COCCN2CCSCCSCCN(CCO1)CCSCCSCC2` gave a melting point of 86 °C.
Work on `CC(=O)OCCCCCCSCC(=O)c1ccc2c(c1)CC(=O)N2` yielded a melting point of 86 to 87 °C.
`COc1nc(C(F)(F)F)c(F)c(=O)n1-c1cc(C(=O)OC(C)C)c(Cl)cc1F` showed a melting point of 104 to 106 °C.
Compound `O=[N+]([O-])c1ccc(C(=NO)c2ccc([N+](=O)[O-])cc2)cc1` has a melting point of 194 °C.
For `CCOC(=O)N1CCC(NC(=S)Nc2cccnc2NCc2ccco2)CC1`, the melting point was 133 °C.
With `CN1CCN(CCc2nc3cc(Br)c4ccccc4c3n2C)CC1` the melting point was 151 to 157 °C.
Compound `CCc1c(C)sc2ncnc(Cl)c12` has a melting point of 52 to 56 °C.
Work on `Cc1c(OC(=O)c2ccccc2)ccc2c1OC(C)(C)CC2=O` yielded a melting point of 113 °C.
`Cc1cc(Sc2ccc3nc(COc4ccc(CC5SC(=O)NC5=O)cc4)n(C)c3n2)cc(C)c1NC(=O)Nc1ccc(C(F)(F)F)cc1` (stereo not drawn) showed a melting point of 193 to 195 °C.
Compound `CC(C)(C)c1ccc(S(=O)(=O)CC(=O)N=C=O)cc1` has a melting point of 163 °C.
With `O=C(Nc1cnc2sc3c(c2c1-c1ccccc1Cl)CCC3)c1ccc(F)cc1F` the melting point was 219 to 220 °C.
Work on `COc1ccc(-c2nc(Cl)sc2-c2ccc(OC)cc2)cc1` yielded a melting point of 92 to 94 °C.
With `c1ccc(COCCOc2ccc(OCc3ccccc3)cc2)cc1` the melting point was 71 to 73 °C.
`O=C1C2=C(CCCC2)C(=O)N1c1ccc(Cl)cc1F` showed a melting point of 81 to 82 °C.
With `CC(C)(C)OC(=O)NC(Cc1ccccc1F)C(=O)N1CCSC1` (stereo not drawn) the melting point was 133 to 134 °C.
With `Cc1cscc1NC(=S)Nc1cc(C(F)(F)F)cc(Cl)c1N` the melting point was over 310 °C.
Work on `Cc1cc(OC(=S)N(C)C)c(C(C)(C)C)cc1C=O` yielded a melting point of 79.5 to 81 °C.
Compound `CCC1CCCCN1C(=O)C=Cc1c(-c2cccc(N(C)C)c2)nn2ccccc12` (stereo not drawn) has a melting point of 180 to 184 °C.
`Cc1nc(-c2ccccc2)ncc1C(=O)c1ccccc1` showed a melting point of 68 to 72 °C.
With `CN1CCC(OC(c2ccccc2)c2nc3cc(Cl)c(Cl)cc3[nH]2)CC1` (stereo not drawn) the melting point was 221 °C.
With `COC(=O)C1(Sc2cc(N=c3sc(=O)n4n3CCCC4)c(F)cc2Cl)CC1` the melting point was 149 °C.
In the case of `CCc1cc(Nc2nc(Nc3cc(CC)n[nH]3)c3ccccc3n2)[nH]n1`, the melting point was 248 to 252 °C.
`CCOC(=O)C1(C(=O)OCC)C(CC)C(=O)N1Cc1ccc(OC)cc1OC` (stereo not drawn) showed a melting point of 69 °C.
For `CC(C)C(=O)C(=CN(C)C)c1ccc(Cl)cc1`, the melting point was 95 °C.
`CCCOc1ccc(Br)cc1CN(CC)c1ccc(C(=O)O)nn1` gave a melting point of 135 to 137 °C.
For `O=C1c2ccccc2C(=O)N1CCCCN1CCC(c2noc3cc(F)ccc23)CC1`, the melting point was 144 to 146 °C.
Work on `O=S(=O)(c1ccc(Oc2ccccc2)cc1)c1cccc(S(=O)(=O)c2ccc(Oc3ccccc3)cc2)c1` yielded a melting point of 70 to 75 °C.
With `COc1ccccc1C(=O)c1sc(NCCc2ccc(Cl)cc2)nc1N` the melting point was 150 to 151 °C.
Compound `COc1ccc(CN2Cc3c(C(N)=O)ncn3-c3ccc(Cl)cc3C2=O)c(OC)c1` has a melting point of over 220 °C.
`COc1ccc(C2S(=O)(=O)CCCS2(=O)=O)cc1OC` showed a melting point of 243 to 245 °C.
In the case of `NC(=O)CNC(=O)c1cc(-c2cccc3cc(Cc4cc(F)cc(Cl)c4)sc23)ccn1`, the melting point was 157 to 158 °C.
For `Cc1ccc(C)c(C2CC(=O)C(C(=O)c3ccccc3)=C(O)C2)c1` (stereo not drawn), the melting point was 182 to 185 °C.
`Cc1ccc(Cc2cnc(NCCCCc3ncc(Br)cc3C)[nH]c2=O)cn1` gave a melting point of 151 to 152 °C.
In the case of `CCCCCC1(C=Cc2ccc(C(=O)O)cc2)CC2=C(C1)C(C)(C)CCC2(C)C`, the melting point was 121 to 123 °C.
`NC(=O)C(NC(=O)OCc1ccccc1)c1ccc(CC2CC2)[nH]1` (stereo not drawn) showed a melting point of 184 to 185 °C.
`CC(=O)NC[C@H]1CN(c2ccc(C3CCN(C(=O)c4cc5ccccc5[nH]4)CC3)c(F)c2)C(=O)O1` showed a melting point of 223 to 225 °C.
`Cc1ccc(Cl)cc1NS(=O)(=O)c1cc(S(=O)(=O)Nc2cc(Cl)ccc2C)c2ccccc2c1` showed a melting point of 125 to 127 °C.
With `FC(F)(F)c1cc(Cl)c(-n2ncc(CS)n2)c(Cl)c1` the melting point was 58 to 60 °C.
`CN1CCC(O)(c2cn(-c3ccnc(NC4CCCC4)n3)c(-c3cccc(C(F)(F)F)c3)n2)CC1` gave a melting point of 189 to 193 °C.
Work on `c1cc2c3c(c1)CNc1ccccc1N3CC2` yielded a melting point of 175 to 177 °C.
Work on `O=S(=O)(NC1CCN(S(=O)(=O)c2cccs2)C1)c1ccc(Cl)cc1` (stereo not drawn) yielded a melting point of 115 to 116 °C.
